This passage reports IC50, CC50 and Activity results from ChEMBL document CHEMBL1156464, “Unique antiviral mechanism discovered in anti-hepatitis B virus research with a natural product analogue” (Proc Natl Acad Sci U S A, 2007).

Data set [1] concerns Hepatitis B virus. In words: Antiviral activity against HBV in mouse ayw wild type HBV-Met cells assessed as inhibition of viral DNA replication. Format: functional, organism-based.
Data set [2] is described as follows: Cytotoxicity against HBV transfected human HepG2 cells by MTT assay. Format: cell-based.
For data set [3], the system named is Hepatitis B virus. In words: Antiviral activity against HBV in HBV-Met cells assessed as inhibition of viral pre genomic RNA replication. It counts as functional, organism-based.
The test system of data set [4] is Hepatitis B virus. As to the kind of experiment: Antiviral activity against HBV in ayw wild type HepG2(2.2.15) cells assessed as inhibition of viral DNA replication. Format: functional, organism-based.
Data set [5] concerns Hepatitis B virus. In words: Antiviral activity against HBV in adriamycin-resistant HepD2 cells with RTM20V and RTV180M mutation assessed as inhibition of viral DNA replication. It counts as functional, organism-based.
Data set [6] in a line: Cytotoxicity against HBV transfected human adriamycin-resistant wild type HepW10 cells by MTT assay. It counts as cell-based.
In data set [7] the test system is Hepatitis B virus. In words: Antiviral activity against HBV in adriamycin-resistant wild type HepW10 cells assessed as inhibition of viral DNA replication. It counts as functional, organism-based.
The nature of data set [8]: Cytotoxicity against HBV transfected human adriamycin-resistant HepD2 cells with RTM20V and RTV180M mutation by MTT assay. It counts as cell-based. Background: Tetrazolium assays rely on reduction of a dye to a coloured formazan, in cell work by metabolically active cells.
Data set [9] has as its system Hepatitis B virus. In words: Inhibition of HBV promoter in human HepG2(2.2.15) cells by luciferase reporter gene assay. It counts as functional, organism-based. For orientation: In a reporter assay the amount or activity of a reporter protein is the signal.
Data set [10] deals with Hepatitis B virus. As to the kind of experiment: Antiviral activity against HBV in human HepD2 cells assessed as inhibition of viral 2.4/2.1RNA replication. It counts as functional, organism-based.
In data set [11] the test system is Hepatitis B virus. In words: Effect on virus RNA stability on doxycyclin-induced HBV pre genomic RNA production in Met-On-TRE HBV cells treated with 3 uM drug after doxycycline removal. Format: functional, organism-based.
Data set [12] deals with Hepatitis B virus. In words: Antiviral activity against HBV in human HepW10 cells assessed as inhibition of viral pre genomic RNA replication. It counts as functional, organism-based.
The test system of data set [13] is Hepatitis B virus. As to the kind of experiment: Antiviral activity against HBV in human HepG2(2.2.15) cells assessed as inhibition of viral 2.4/2.1RNA replication. It counts as functional, organism-based.
Data set [14] has as its system Hepatitis B virus. As to the kind of experiment: Antiviral activity against HBV in human HepD2 cells assessed as inhibition of viral pre genomic RNA replication. It counts as functional, organism-based.
The test system of data set [15] is Hepatitis B virus. In words: Antiviral activity against HBV in human HepG2(2.2.15) cells assessed as inhibition of viral pre-genomic RNA replication. It counts as functional, organism-based.
Data set [16] in a line: Cytotoxicity against HBV transfected human ayw wild type HepG2(2.2.15) cells by MTT assay. The conditions noted are these: HBV-transfected ayw wild type HepG2(2.2.15) cells. Format: cell-based.
The subject of data set [17] is Hepatitis B virus. As to the kind of experiment: Inhibition of HBV promoter in human HepG2 cells by luciferase reporter gene assay. Format: functional, organism-based.
For data set [18], the system named is Hepatitis B virus. In words: Antiviral activity against HBV in human HepW10 cells assessed as inhibition of viral 2.4/2.1RNA replication. Format: functional, organism-based.
In data set [19] the test system is Hepatitis B virus. As to the kind of experiment: Antiviral activity against HBV in mouse HBV-Met cells assessed as inhibition of viral 2.4/2.1RNA replication. It counts as functional, organism-based.
The next data set relates to Human gammaherpesvirus 4. In words: Antiviral activity against Epstein-Barr virus. It counts as functional, organism-based.
A further data set concerns Hepatitis C virus. In words: Antiviral activity against hepatitis C virus. It counts as functional, organism-based, Hepacivirus hominis.
Data set [20] has as its system Human immunodeficiency virus. In words: Antiviral activity against HIV. Format: functional, organism-based. The conditions noted are these: Human immunodeficiency virus 1.
In the next data set the test system is Human alphaherpesvirus 1. As to the kind of experiment: Antiviral activity against HSV1. Format: functional, organism-based.
The subject of data set [21] is Hepatitis B virus. In words: Antiviral activity against HBV assessed as inhibition of viral replication. It counts as functional, organism-based.
Another data set has as its system human papillomavirus 11. As to the kind of experiment: Antiviral activity against human papilloma virus 11. Format: functional, organism-based.
The subject of data set [22] is Hepatitis B virus. As to the kind of experiment: Effect on virus RNA stability on doxycyclin-induced HBV pre genomic RNA production in Met-On-TRE HBV cells treated with 0.3 uM drug after doxycycline removal. Format: functional, organism-based.
Data set [23] has as its system HepG2 2.2.15. As to the kind of experiment: Decrease in binding of HBV promoter preC/C-EnhII to human HNF4-2 in HepG2(2.2.15) cells. Format: cell-based.
Data set [24] deals with HepG2. In words: Decrease in binding of HBV promoter preC/C-EnhII to HNF4-1 in human HepG2 cells. It counts as cell-based.
Data set [25] concerns HepG2. As to the kind of experiment: Decrease in binding of HBV promoter preC/C-EnhII to FTF2 in human HepG2 cells. It counts as cell-based.
Data set [26] deals with HepG2. In words: Decrease in binding of HBV promoter preC/C-EnhII to HNF3 in human HepG2 cells. Format: cell-based.
The test system of data set [27] is Hepatitis B virus. As to the kind of experiment: Decrease in HBV RNA in human HepG2 cells at 2 uM after 18 to 24 hrs by time course study. Format: functional, organism-based.
In data set [28] the test system is HepG2 2.2.15. As to the kind of experiment: Decrease in binding of HBV promoter preC/C-EnhII to human FTF in HepG2(2.2.15) cells. Format: cell-based.
The nature of data set [29]: Down regulation of HNH4-alpha in human HepG2(2.2.15) cells expressing HBV at 0.3 uM by Western blotting. Format: functional, cell-based. In general terms: A western blot detects proteins with antibodies after separation by electrophoresis.
The subject of data set [30] is HepG2. As to the kind of experiment: Down regulation of HNH4-alpha in human HepG2 cells expressing HBV at 0.3 uM by Western blotting. It counts as functional, cell-based.
Data set [31] has as its system HepG2. As to the kind of experiment: Down regulation of HNH3-beta in human HepG2 cells expressing HBV at 0.3 uM by Western blotting. Format: functional, cell-based.
A short description of data set [32]: Down regulation of HNH3-alpha mRNA in human HepG2(2.2.15) cells expressing HBV at 0.3 uM by Northern blotting. Format: functional, cell-based.
The nature of data set [33]: Down regulation of HNH3-beta in human HepG2(2.2.15) cells expressing HBV at 0.3 uM by Western blotting. It counts as functional, cell-based.
Data set [34] concerns HepG2 2.2.15. In words: Decrease in binding of HBV promoter preC/C-EnhII to human HNF3 in HepG2(2.2.15) cells. Format: cell-based.
The test system of the next data set is Cytomegalovirus. In words: Inhibition of CMV promoter in human HepG2(2.2.15) cells by luciferase reporter gene assay after 16 to 24 hrs. Format: functional, organism-based. The conditions noted are these: TDE = time-dependent effect.
For data set [35], the system named is HepG2. As to the kind of experiment: Decrease in binding of HBV promoter preC/C-EnhII to HNF4-2 in human HepG2 cells. It counts as cell-based.
Data set [36] relates to Hepatitis B virus. As to the kind of experiment: Decrease in HBV protein level in human HepG2 cells at 2 uM after 18 to 24 hrs by time course study. Format: functional, organism-based.
In data set [37] the test system is Hepatitis B virus. In words: Effect on HBV viral core protein degradation on cyclohexamide terminated cellular protein synthesis in human HepG2(2.2.15) cells at 0.3 uM. Format: functional, organism-based.
Data set [38] concerns Hepatitis B virus. In words: Decrease in HBV DNA level in human HepG2 cells at 2 uM after 48 hrs by time course study. Format: functional, organism-based.
Data set [39] concerns HepG2 2.2.15. As to the kind of experiment: Decrease in binding of HBV promoter preC/C-EnhII to human HNF4-1 in HepG2(2.2.15) cells. Format: cell-based.

Activity calls are given as the source filed them. The rule behind the calls is not given here.

For the molecule `Nc1ccn([C@@H]2CS[C@H](CO)O2)c(=O)n1` [LAMIVUDINE], the concentration for half-maximal inhibition (IC50) with Hepatitis B virus [1] was 200 nM; with Hepatitis B virus [4] it was 50 nM; with Hepatitis B virus [5], above 3000 nM; in the data set on Hepatitis B virus [7] it was 100 nM; in the data set on Hepatitis B virus [9], 80 nM; in the data set with Hepatitis B virus [17], above 1000 nM. Further, the CC50 was 100000 nM in data set [2], above 100000 nM in data set [6], above 100000 nM in [8] and above 100000 nM in data set [16]. In addition, the outcome with Hepatitis B virus [3], in the data set on Hepatitis B virus [10], with Hepatitis B virus [11], with Hepatitis B virus [12], in the data set on Hepatitis B virus [13] and with Hepatitis B virus [14] was inactive. For the same molecule, the result with Hepatitis B virus [15], in the data set with Hepatitis B virus [18] and in the data set on Hepatitis B virus [19] was inactive.
On to `O=C1NCc2c1cc1ccc3c(c1c2-c1ccc2c(c1)OCO2)OCO3`, for which the IC50 in the data set on Human gammaherpesvirus 4 came out at 11000 nM; with Hepatitis C virus it was 1000 nM; in data set [20], 4000 nM; with Human alphaherpesvirus 1, 290 nM; in the data set with Hepatitis B virus [9] it was 80 nM; in the data set on Hepatitis B virus [21], 80 nM. Besides, the IC50 is 200 nM with human papillomavirus 11 and above 1000 nM with Hepatitis B virus [17].
Turning to `O=c1[nH][nH]c(=O)c2c(-c3ccc4c(c3)OCO4)c3c4c(ccc3cc12)OCO4`, the outcome (with Hepatitis B virus [22]; in the data set on HepG2 [24]; with HepG2 [26]; in the data set with HepG2 [30]; in data set [32]; in the data set on HepG2 [35]) was inactive. Moreover, the result in the data set with Hepatitis B virus [37] was inactive. The 50% inhibitory concentration (IC50) is 300 nM in the data set with Hepatitis B virus [1]; above 25000 nM with Human gammaherpesvirus 4; 10000 nM in the data set with Hepatitis C virus; 500 nM in the data set with Hepatitis B virus [3]; 15000 nM in [20]; 1200 nM with Human alphaherpesvirus 1. Besides, the half-maximal inhibitory concentration (IC50) was 80 nM in the data set on Hepatitis B virus [4]; 30 nM with Hepatitis B virus [5]; 200 nM with Hepatitis B virus [7]; 80 nM in the data set on Hepatitis B virus [9]; 1500 nM in the data set on Hepatitis B virus [10]; 100 nM in the data set on Hepatitis B virus [21]. The concentration for half-maximal inhibition (IC50) with human papillomavirus 11 was 5800 nM; in the data set on Hepatitis B virus [12] it was 400 nM; in the data set with Hepatitis B virus [13] it was 900 nM; in the data set on Hepatitis B virus [14], 90 nM; in the data set on Hepatitis B virus [15] it was 300 nM; in the data set on Hepatitis B virus [17], above 1000 nM. For the same molecule, the IC50 in the data set with Hepatitis B virus [18] is above 3000 nM; with Hepatitis B virus [19] it was 1000 nM. Besides, the result (in the data set with HepG2 2.2.15 [23]; in the data set with HepG2 [25]; in the data set on Hepatitis B virus [27]; in the data set with HepG2 2.2.15 [28]; in [29]; with HepG2 [31]) was Active. Besides, the result (in data set [33]; with HepG2 2.2.15 [34]; in the data set on Hepatitis B virus [36]; with Hepatitis B virus [38]; with HepG2 2.2.15 [39]) was Active. Further, the cytotoxic concentration (CC50) in data set [2] worked out at 29000 nM; in [6], 13000 nM; in data set [8], 12000 nM; in data set [16] it was 9000 nM. For the same molecule, the Activity result in the data set with Cytomegalovirus is “tde”.

For orientation: IC50 means the concentration that inhibits the measured activity by half. Usually CC50 stands for the concentration that lowers cell viability or growth by half.
